The values below come from paper PMC3779320, “Bub3 reads phosphorylated MELT repeats to promote spindle assembly checkpoint signaling” (eLife, 2013).

Changes are numbered by the printed parent chain. Square brackets hold non-standard residues; d marks the D form. Peptide text beside a SMILES is read from it. pT = C[C@@H](OP(=O)(O)O)[C@H](N)C(=O)O

One assay concerns the target T1, Bub1^289–359–Bub3^R239A (Saccharomyces cerevisiae, UniProt P26449+P41695, R239A).
T1 construct: S. cerevisiae Bub1^289–359 and for full length Bub3; ITC experiments with the MELT2^P peptide and Bub1^289–359–Bub3^R239A; GST (N, cleaved yes); made in house; host or cells: E. coli BL21 DE3 plysS
T1 sequence (P26449 1-341 R239A): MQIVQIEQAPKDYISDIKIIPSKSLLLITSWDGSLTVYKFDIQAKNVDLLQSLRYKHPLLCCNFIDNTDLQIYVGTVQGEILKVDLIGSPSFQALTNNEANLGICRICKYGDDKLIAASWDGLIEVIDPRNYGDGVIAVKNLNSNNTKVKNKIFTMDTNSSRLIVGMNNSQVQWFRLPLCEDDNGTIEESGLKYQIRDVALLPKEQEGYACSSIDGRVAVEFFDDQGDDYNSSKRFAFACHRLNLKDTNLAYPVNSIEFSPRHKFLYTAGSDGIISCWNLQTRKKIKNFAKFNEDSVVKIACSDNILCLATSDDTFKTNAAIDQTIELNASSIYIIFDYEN
T1 sequence (P41695 289-359): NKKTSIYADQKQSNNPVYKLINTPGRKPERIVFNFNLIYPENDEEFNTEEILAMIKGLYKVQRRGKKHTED
Kind of assay: ITC binding to Bub1^289–359–Bub3^R239A. The conditions noted are these: Bub3 R239A compared with wild type (13- to 25-fold for R217A or R239A). The source says:
Because the presence of a phosphate on Thr172^Spc105/Knl1 is essential for high-affinity binding of ScBub1^289–359–Bub3 to MELT^P peptides (Figure 1), we concentrated our mutational analysis on two residues that are directly implicated in the recognition of the peptide’s phospho-threonine, Arg217^Bub3 and Arg239^Bub3. Positively charged residues are invariant at these positions of the Bub3 alignment (Figure 2C). We generated single or double alanine mutants of Arg217^Bub3 and Arg239^Bub3 in the context of ScBub1^289–359–Bub3 and tested their binding affinity for the MELT2^P peptide by ITC.
cDNA sequences coding for S. cerevisiae Bub1^289–359 and for full length Bub3 were subcloned in the first and second cassettes of pGEX-6P-2rbs vector ([Ciferri et al., 2005]). In this construct, the cDNA encoding Bub1^289–359 was sub-cloned in frame with the gene encoding GST and a cleavage site for PreScission protease, and was translated from the first ribosome-binding site (rbs). Untagged Bub3 was subcloned downstream of the second rbs in the same vector. Expression was carried out in BL21 DE3 plysS cells in LB medium by auto-induction with 0.3% lactose at 18°C for approximately 16 hr. […]
Binding isotherm was measured at 25°C by isothermal titration calorimetry on a MicroCal ITC200 device (GE Healthcare, Piscataway, NJ). […]

Another assay deals with T2, Bub3 (Saccharomyces cerevisiae, UniProt P26449).
T2 construct: S. cerevisiae Bub1^289–359 and for full length Bub3; made in house
T2 sequence (P26449 1-341): T1 sequence (P26449 1-341 R239A) with A239R
Kind of assay: ITC binding to Bub3 in the absence of Bub1. The conditions noted are these: Bub3 without Bub1 compared to the Bub1–Bub3 complex. The method, then:
However, as already anticipated in the Introduction, several lines of evidence indicate that Bub1 contributes to this interaction (Discussion). To test this possibility formally, we measured the binding of purified Bub3 (Figure 1D) to the MELT2^P peptide in the absence of Bub1.
Binding isotherm was measured at 25°C by isothermal titration calorimetry on a MicroCal ITC200 device (GE Healthcare, Piscataway, NJ). All samples were extensively dialysed into fresh GF buffer (20 mM Tris pH7.5, 150 mM NaCl, 1 mM DTE). In each titration, the Bub1^289–359–Bub3 in the cell (at a 30 µM concentration) was titrated with thirty-five 2-µl injections (at 90 s intervals) of the indicated synthetic MELT^P peptides (at a concentration of 400 µM). The injections were continued beyond saturation levels to allow for determination of heats of ligand dilution. Data were fitted by least-square procedures to a single-site binding model using ORIGIN 5.0 software package (MicroCal, Northampton, MA).

With `CC[C@H](C)[C@H](NC(=O)[C@H](CO)NC(=O)[C@H](CCCNC(=N)N)NC(=O)[C@@H]1CCCN1C(=O)[C@H](Cc1ccccc1)NC(=O)[C@@H](NC(=O)[C@H](CCC(=O)O)NC(=O)[C@@H](NC(=O)[C@H](CCSC)NC(=O)[C@H](CCC(=O)O)NC(=O)[C@H](CCSC)NC(=O)[C@H](CO)NC(=O)[C@@H](NC(=O)[C@@H]1CCCN1C(=O)[C@H](CC(=O)O)NC(C)=O)[C@@H](C)O)[C@@H](C)OP(=O)(O)O)C(C)C)C(=O)N[C@@H](CCCNC(=N)N)C(=O)N[C@@H](CCC(N)=O)C(=O)N[C@@H](CCCCN)C(=O)N[C@@H](CC(N)=O)C(N)=O` [MELT2^P] (Ac-DPTSMEM[pT]EVFPRSIRQKN-NH2; N-terminus and C-terminus assumed), the “fold reduction in binding affinity” value on Bub1^289–359–Bub3^R239A worked out at 25 fold; at Bub3, 10 fold.
